Results from patent US8247211B2, “Glycopeptide antibiotics” (American Cyanamid Company, priority 2001, dated 2012).
In brackets after ≈: the same amount, converted by molar mass.

Assays:
Test in all cases: In vitro antibacterial evaluation: minimum inhibitory concentration (MIC), broth dilution method
Format in all cases: cell-based
Enterococcus sp. = conditions: 18 hours at 35° C.
Summary of the method: (§1)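 Test strains, among them recent clinical isolates carrying methicillin, penicillin and/or vancomycin resistance, were inoculated at 5×10^5 CFU/mL. A broth dilution series spanning 64-0.06 μg/mL in Muller-Hinton II […] (NCCLS M7-A2) defined the MIC as the lowest growth-inhibiting concentration.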

Escherichia coli = conditions: 18 hours at 35° C.
Summary of the method: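 Broth dilution per NCCLS M7-A2 in Muller-Hinton II […], inoculum 5×10^5 CFU/mL, antibiotic tested over 64-0.06 μg/mL. MIC is taken as the lowest concentration that inhibits growth. Panel includes recent clinical isolates resistant to methicillin, penicillin and/or vancomycin.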

Staphylococcus sp. = test system: Staphylococcus sp.
Summary of the method: as §1

Streptococcus sp. = conditions: 18 hours at 35° C.
Summary of the method: as §1

[1] = broth dilution, inoculum 5×10^5 CFU/mL

CC(c1ccc(Cl)cc1)C1NC(=O)CNC(=O)C(CO)NC(=O)C(C(O)C2CNC(=N)N2C2OC(CO)C(O)C(O)C2O)NC(=O)C(C(O)C2CNC(=N)N2)NC(=O)C(Cc2ccc(OC3OC(CO)C(OC4OC5COC(c6ccccc6)OC5C(O)C4O)C(O)C3O)cc2)NC1=O (stereo not drawn) [Example 195, Cyclo[glycyl-4-chloro-β-methylphenylalanyl-O-[4-O-(4,6-O-benzylidenehexopyranosyl)-hexopyranosyl]tyrosyl-3-(2-iminoimidazolidin-4-yl)seryl-3-(3-hexopyranosyl-2-iminoimidazolidin-4-yl)serylseryl]]
MIC Enterococcus avium (GC 4558) (Enterococcus sp.; Enterococcus avium (GC 4558)): 0.5 µg/mL (≈ 0.353 µM) | MIC Enterococcus faecalis (ATCC 29212) (Enterococcus sp.; Enterococcus faecalis (ATCC 29212)): 0.5 µg/mL (≈ 0.353 µM) | MIC Enterococcus faecalis (GC 2242) (Enterococcus sp.; Enterococcus faecalis (GC 2242)): 0.5 µg/mL (≈ 0.353 µM) | MIC Enterococcus faecalis (GC 2691) (Enterococcus sp.; Enterococcus faecalis (GC 2691)): 0.5 µg/mL (≈ 0.353 µM) | MIC Enterococcus faecalis (GC 3059) (Enterococcus sp.; Enterococcus faecalis (GC 3059)): 0.5 µg/mL (≈ 0.353 µM) | MIC Enterococcus faecalis (GC 4552) (Enterococcus sp.; Enterococcus faecalis (GC 4552)): 0.5 µg/mL (≈ 0.353 µM) | MIC Enterococcus faecalis (GC 4553) (Enterococcus sp.; Enterococcus faecalis (GC 4553)): 0.5 µg/mL (≈ 0.353 µM) | MIC Enterococcus faecalis (GC 4554) (Enterococcus sp.; Enterococcus faecalis (GC 4554)): 0.5 µg/mL (≈ 0.353 µM) | MIC Enterococcus faecalis (GC 6189) (Enterococcus sp.; Enterococcus faecalis (GC 6189)): 0.5 µg/mL (≈ 0.353 µM) | MIC Enterococcus faecium (GC 2243) (Enterococcus sp.; Enterococcus faecium (GC 2243)): 0.5 µg/mL (≈ 0.353 µM) | MIC Enterococcus faecium (GC 4556) (Enterococcus sp.; Enterococcus faecium (GC 4556)): 0.5 µg/mL (≈ 0.353 µM) | MIC Enterococcus faecium (GC 4557) (Enterococcus sp.; Enterococcus faecium (GC 4557)): 0.5 µg/mL (≈ 0.353 µM) | MIC Enterococcus avium (GC 4558) (Enterococcus sp.; [1]): 0.5 µg/mL (≈ 0.353 µM) | MIC Enterococcus faecalis (ATCC 29212) (Enterococcus sp.; [1]): 0.5 µg/mL (≈ 0.353 µM) | MIC Enterococcus faecalis (GC 2242) (Enterococcus sp.; [1]): 0.5 µg/mL (≈ 0.353 µM) | MIC Enterococcus faecalis (GC 2691) (Enterococcus sp.; [1]): 0.5 µg/mL (≈ 0.353 µM) | MIC Enterococcus faecalis (GC 3059) (Enterococcus sp.; [1]): 0.5 µg/mL (≈ 0.353 µM) | MIC Enterococcus faecalis (GC 4552) (Enterococcus sp.; [1]): 0.5 µg/mL (≈ 0.353 µM) | MIC Enterococcus faecalis (GC 4553) (Enterococcus sp.; [1]): 0.5 µg/mL (≈ 0.353 µM) | MIC Enterococcus faecalis (GC 4554) (Enterococcus sp.; [1]): 0.5 µg/mL (≈ 0.353 µM) | MIC Enterococcus faecalis (GC 6189) (Enterococcus sp.; [1]): 0.5 µg/mL (≈ 0.353 µM) | MIC Enterococcus faecium (GC 2243) (Enterococcus sp.; [1]): 0.5 µg/mL (≈ 0.353 µM) | MIC Enterococcus faecium (GC 4556) (Enterococcus sp.; [1]): 0.5 µg/mL (≈ 0.353 µM) | MIC Enterococcus faecium (GC 4557) (Enterococcus sp.; [1]): 0.5 µg/mL (≈ 0.353 µM) | MIC Escherichia coli (ATCC 25922) (Escherichia coli; Escherichia coli (ATCC 25922)): >0.5 µg/mL | MIC Escherichia coli (GC 4559) (Escherichia coli; Escherichia coli (GC 4559)): >0.5 µg/mL | MIC Escherichia coli (GC 4560) (Escherichia coli; Escherichia coli (GC 4560)): 0.5 µg/mL (≈ 0.353 µM) | MIC Staphylococcus aureus (ATCC 29213) (Staphylococcus sp.; strain ATCC 29213): 0.5 µg/mL (≈ 0.353 µM) | MIC Staphylococcus aureus (GC 1131) (Staphylococcus sp.; strain GC 1131): 0.5 µg/mL (≈ 0.353 µM) | MIC Staphylococcus aureus (GC 3051) (Staphylococcus sp.; strain GC 3051): 0.5 µg/mL (≈ 0.353 µM) | MIC Staphylococcus aureus (GC 3053) (Staphylococcus sp.; strain GC 3053): 0.5 µg/mL (≈ 0.353 µM) | MIC Staphylococcus aureus (GC 4541) (Staphylococcus sp.; strain GC 4541): 0.5 µg/mL (≈ 0.353 µM) | MIC Staphylococcus aureus (GC 4542) (Staphylococcus sp.; strain GC 4542): 0.5 µg/mL (≈ 0.353 µM) | MIC Staphylococcus aureus-SMITH (GC 4543) (Staphylococcus sp.; strain GC 4543): 0.5 µg/mL (≈ 0.353 µM) | MIC Staphylococcus aureus (GC 4544) (Staphylococcus sp.; strain GC 4544): 0.5 µg/mL (≈ 0.353 µM) | MIC Staphylococcus aureus (GC 4545) (Staphylococcus sp.; strain GC 4545): 0.5 µg/mL (≈ 0.353 µM) | MIC Staphylococcus haemolyticus (GC 4546) (Staphylococcus sp.; strain GC 4546): 2 µg/mL (≈ 1.41 µM) | MIC Coagulase Negative Staphylococcus (GC 4547) (Staphylococcus sp.; strain GC 4547): 4 µg/mL (≈ 2.82 µM) | MIC Coagulase Negative Staphylococcus (GC 4548) (Staphylococcus sp.; strain GC 4548): 2 µg/mL (≈ 1.41 µM) | MIC Coagulase Negative Staphylococcus (GC 4549) (Staphylococcus sp.; strain GC 4549): 1 µg/mL (≈ 0.705 µM) | MIC Coagulase Negative Staphylococcus (GC 4551) (Staphylococcus sp.; strain GC 4551): 4 µg/mL (≈ 2.82 µM) | MIC Coagulase Negative Staphylococcus (GC 6257) (Staphylococcus sp.; strain GC 6257): 2 µg/mL (≈ 1.41 µM) | MIC Streptococcus agalactiae (GC 4564) (Streptococcus sp.; Streptococcus agalactiae (GC 4564)): 0.5 µg/mL (≈ 0.353 µM) | MIC Streptococcus pneumoniae (ATCC 6301) (Streptococcus sp.; Streptococcus pneumoniae (ATCC 6301)): 0.12 µg/mL (≈ 0.0846 µM) | MIC Streptococcus pneumoniae (GC 1894) (Streptococcus sp.; Streptococcus pneumoniae (GC 1894)): 0.12 µg/mL (≈ 0.0846 µM) | MIC Streptococcus pneumoniae (GC 4565) (Streptococcus sp.; Streptococcus pneumoniae (GC 4565)): 0.12 µg/mL (≈ 0.0846 µM) | MIC Streptococcus pyogenes (GC 4563) (Streptococcus sp.; Streptococcus pyogenes (GC 4563)): 0.12 µg/mL (≈ 0.0846 µM) | MIC Streptococcus agalactiae (GC 4564) (Streptococcus sp.; [1]): 0.5 µg/mL (≈ 0.353 µM) | MIC Streptococcus pneumoniae (ATCC 6301) (Streptococcus sp.; [1]): 0.12 µg/mL (≈ 0.0846 µM) | MIC Streptococcus pneumoniae (GC 1894) (Streptococcus sp.; [1]): 0.12 µg/mL (≈ 0.0846 µM) | MIC Streptococcus pneumoniae (GC 4565) (Streptococcus sp.; [1]): 0.12 µg/mL (≈ 0.0846 µM) | MIC Streptococcus pyogenes (GC 4563) (Streptococcus sp.; [1]): 0.12 µg/mL (≈ 0.0846 µM)
